Survival benefit data for 1 molecule are collected here from patent publication US11946064B2, “Compositions and therapeutic methods of microRNA gene delivery” (The Brigham and Women's Hospital, Inc., priority 2018, dated 2024).

The test system of the experiment is glioblastoma initiating cells (GICs). Put plainly: survival of mice implanted intracranially with GICs and treated with TMZ. Format: in vivo, athymic nude mice. The following applies: control cells; intraperitoneal TMZ 20 mg/Kg/day for 5 days. On the procedure:
FIGS. 6A-6F illustrates the effect of clustered microRNAs on GBM cells treated with TMZ or irradiation. […] Dotted lines represent animals treated with TMZ. Different line colors represent the different overexpressed clusters.
Furthermore, in an in vivo model, mice were intracranially implanted with glioblastoma initiating cells (GICs) expressing either control vector, Cluster 3 or Cluster 5 vector and treated with intraperitoneal TMZ injections (20 mg/Kg/day for 5 days).

For `Cn1nnc2c(C(N)=O)ncn2c1=O` [TMZ, temozolomide], the survival benefit is recorded as approximately 40%.
